The record followed here is patent US4316839A, “Imidazodiazepine derivatives” (Hoffman-La Roche Inc., priority 1979, dated 1982).

One may read the IC50 as the concentration that inhibits the measured activity by half. Read a low IC50 as greater potency. Broadly, the ED50 is the midpoint of the dose-response relation. Read a low ED50 as greater potency. What is called LD50 is the dose at which mortality reaches 50%. High values mean a less toxic substance, low ones a more toxic substance.

Series [1] addresses specific benzodiazepine receptors in the cerebral cortex. As to the kind of experiment: inhibition of the binding of tritiated diazepam at the specific benzodiazepine receptors in the cerebral cortex. As to the method: The affinity of compounds of formula I to the central benzodiazepine receptors was determined according to the method described in Life Science 20, 2101-2110 (1977) and Science 198, 849-851 (1977). According to this method, the inhibition of the binding of tritiated diazepam at the specific benzodiazepine receptors in the cerebral cortex by test substances is ascertained. The IC50 ("50% inhibiting concentration") is that concentration of the test substance which brings about a 50 percent inhibition of the specific binding of the tritiated diazepam at the specific benzodiazepine receptors in the cerebral cortex.
(§1) In the following Table there are compiled the results which have been obtained with representative compounds of formula I. The ED50 value is given for each compound listed in the Table. The ED50 is the amount of the test compound in mg/kg (p.o.) which counteracts in 50% of the animals the diazepam effect in the foregoing test. Moreover, the Table contains the IC50 value (defined hereinbefore) for all test compounds listed therein as well as details concerning the acute toxicity of certain compounds (LD50 in mg/kg following single oral administration to mice).

For series [2], the system named is diazepam effect in the pentetrazole test. The experiment in a line: pentetrazole test: antagonism of the diazepam effect in mice. The series is classed as in vivo. The conditions noted are these: for ED50: Mus musculus, po, mice, diazepam 5 mg/kg i.p. 1 hour and test compound 15 min before pentetrazole 120 mg/kg i.p. As to the method:
This property was used as a basis for the test described hereinafter which permits the determination of compounds which are capable of antagonising the central properties of 1,4-benzodiazepines which have tranquillising activity.
The antagonistic activity of the compounds tested, i.e. their ability to counteract the activity of diazepam in the pentetrazole test, is determined by counting the mice which suffer spasmodic seizures in this test.
as §1

Series [3] can be described thus: acute toxicity following single oral administration to mice. Particulars: mouse, in vivo.
Description: as §1

For series [4], the system named is central activities of diazepam. As to the kind of experiment: antagonism of the central activities of diazepam (sleep/waking behaviour) in male albino rats. The series is classed as in vivo. The text has this:
Male albino rats (body weight about 165 g) are used for this test.

Setting [5] is: compounds of formula I with A = group (a).
Where [6] appears, read: 20 mg/kg i.p., then after 30 min diazepam 5 mg/kg i.v.
[7] abbreviates: thieno derivatives, A = group (b).

Take `CCOC(=O)c1ncn2c1C1C=CCN1C(=O)c1ccccc1-2` (racemic) [Example 43, ethyl (R,S)-11,13a-dihydro-9-oxo-9H-imidazo[1,5-a]pyrrolo[2,1-c][1,4]benzodiazepine-1-carboxylate]: the IC50 in series [1] (setting [5]) worked out at 2.3 µM. Besides, the ED50 in series [2] stood at 3.9 mg/kg.

As to `COC(=O)c1ncn2c1CN(C)C(=O)c1cc(F)ccc1-2` [Example 3, methyl 8-fluoro-5,6-dihydro-5-methyl-6-oxo-4H-imidazo[1,5-a][1,4]benzodiazepine-3-carboxylate], the IC50 in series [1] (setting [5]) amounted to 6 µM. For the same compound, the ED50 in series [2] came to 4.9 mg/kg.

Regarding `CC(C)OC(=O)c1ncn2c1CN(C)C(=O)c1cc(F)ccc1-2` [Example 4, isopropyl 8-fluoro-5,6-dihydro-5-methyl-6-oxo-4H-imidazo [1,5-a][1,4]benzodiazepine-3-carboxylate], the IC50 in series [1] (setting [5]) was determined as 3.9 µM. For the same compound, the ED50 in series [2] was found to be 6.6 mg/kg. This compound gave an LD50 in series [3] greater than 5000 mg/kg.

As to `CCOC(=O)c1ncn2c1CN(C)C(=S)c1cc(F)ccc1-2` [Example 6, ethyl 8-fluoro-5,6-dihydro-5-methyl-6-thioxo-4H-imidazo[1,5-a][1,4]benzodiazepine-3-carboxylate], the half-inhibitory concentration (IC50) in series [1] (setting [5]) turned out to be 2.5 µM. The ED50 in series [2] was 6.3 mg/kg.

`CN1Cc2c(C#N)ncn2-c2ccc(F)cc2C1=O` [Example 7, 8-fluoro-5,6-dihydro-5-methyl-6-oxo-4H-imidazo[1,5-a][1,4]benzodiazepine-3-carbonitrile] came in with an IC50 in series [1] (setting [5]) of 93 µM. This compound displayed an ED50 in series [2] of 4.2 mg/kg.

Take `CCOC(=O)c1ncn2c1CN(C)C(=O)c1c(F)cccc1-2` [Example 10, ethyl 7-fluoro-5,6-dihydro-5-methyl-6-oxo-4H-imidazo[1,5-a][1,4]benzodiazepine-3-carboxylate]: the half-maximal inhibitory concentration (IC50) in series [1] (setting [5]) is 2 µM. In series [2], this compound gave an ED50 of 2.1 mg/kg. In series [3], the LD50 was greater than 5000 mg/kg.

Turning to `CCOC(=O)c1ncn2c1C1C=CCN1C(=O)c1c(F)cccc1-2` (stereo not drawn) [Example 11, ethyl 8-fluoro-11,13a-dihydro-9-oxo-9H-imidazo[1,5-a]pyrrolo[2,1-c][1,4]benzodiazepine-1-carboxylate], the IC50 in series [1] (setting [5]) is 2.1 µM. This compound had an ED50 in series [2] of 1.8 mg/kg. In series [3], the LD50 fell in the range of 500 to 1000 mg/kg.

In turn, `CCOC(=O)c1ncn2c1[C@@H]1CCCN1C(=O)c1cc(F)ccc1-2` [Example 12, ethyl (S)-7-fluoro-11,12,13,13a-tetrahydro-9-oxo-9H-imidazo[1,5-a]pyrrolo[2,1-c][1,4]benzodiazepine-1-carboxylate] returned an IC50 in series [1] (setting [5]) of 6 µM. This compound also gave an ED50 in series [2] of 8.9 mg/kg.

Turning to `CCOC(=O)c1ncn2c1CN(C)C(=O)c1c(Cl)cccc1-2` [Example 13, ethyl 7-chloro-5,6-dihydro-5-methyl-6-oxo-4H-imidazo[1,5-a][1,4]benzodiazepine-3-carboxylate], the IC50 in series [1] (setting [5]) was found to be 3 µM. The compound also registered an ED50 in series [2] of 0.48 mg/kg.

Compound `CCOC(=O)c1ncn2c1[C@@H]1CCCN1C(=O)c1c(Cl)cccc1-2` [Example 14, ethyl (S)-8-chloro-11,12,13,13a-tetrahydro-9-oxo-9H-imidazo[1,5-a]pyrrolo[2,1-c][1,4]benzodiazepine-1-carboxylate] came in with a 50% inhibitory concentration (IC50) in series [1] (setting [5]) of 1.7 µM. Further, the ED50 in series [2] worked out at 1 mg/kg. The compound also had an LD50 in series [3] of 750 to 1500 mg/kg.

The compound `CCOC(=O)c1ncn2c1CN(C)C(=O)c1ccccc1-2` [Example 16, ethyl 5,6-dihydro-5-methyl-6-oxo-4H-imidazo[1,5-a][1,4]benzodiazepine-3-carboxylate] came in with an IC50 in series [1] (setting [5]) of 3 µM. The compound also showed an ED50 in series [2] of 10.9 mg/kg. The same compound displayed an LD50 in series [3] greater than 5000 mg/kg. For the same compound, the “waking of diazepam-treated animals” value in series [4] (5 mg/kg i.v., 5 or 15 min after diazepam 5 mg/kg i.v. or 30 min after diazepam 10 mg/kg i.p.) is “the animals stand up immediately and move around”. The “behaviour after test substance alone” value in series [4] (20 mg/kg i.p.) is “the animals remain awake and show a normal behaviour”. Moreover, in series [4] (setting [6]), the “duration of waking phase” value is recorded as “at least 30 minutes”; the “symptoms after subsequent diazepam” value was “in the first 2 minutes after the injection slight sedation and ataxia, but these symptoms rapidly disappear”. The “antagonism of the central activities of diazepam” value in series [4] (rats, overall finding) was “antagonises the central activities of the known 1,4-benzodiazepine derivative diazepam”.

`CN1Cc2c(C#N)ncn2-c2ccccc2C1=O` [Example 18, 5,6-dihydro-5-methyl-6-oxo-4H-imidazo[1,5-a][1,4]benzodiazepine-3-carbonitrile]: in series [1] (setting [5]), the IC50 was 100 µM. In addition, in series [2], the 50% effect level (ED50) was put at a dose of 2.6 mg/kg. In series [3], this compound yielded a median lethal dose (LD50) of 1250 mg/kg.

Consider `COC(=O)c1ncn2c1CN(C)C(=O)c1ccccc1-2` [Example 24, methyl 5,6-dihydro-5-methyl-6-oxo-4H-imidazo[1,5-a][1,4]benzodiazepine-3-carboxylate], for which, in series [1] (setting [5]), the IC50 was determined as 9 µM. In series [2], the ED50 turned out to be 13.5 mg/kg.

Regarding `CC(C)OC(=O)c1ncn2c1CN(C)C(=O)c1ccccc1-2` [Example 25, isopropyl 5,6-dihydro-5-methyl-6-oxo-4H-imidazo[1,5-a][1,4]benzodiazepine 3-carboxylate], the IC50 in series [1] (setting [5]) was 12 µM. In series [2], this compound yielded a 50% effective dose (ED50) of 7 mg/kg.

In the case of `CCOC(=O)c1ncn2c1CN(C)C(=S)c1ccccc1-2` [Example 27, ethyl 5,6-dihydro-5-methyl-6-thioxo-4H-imidazo[1,5-a][1,4]benzodiazepine-3-carboxylate], in series [1] (setting [5]), the concentration for half-maximal inhibition (IC50) was 6 µM. In addition, in series [2], the ED50 worked out at 8.9 mg/kg.

Turning to `CCOC(=O)c1ncn2c1CN(C)C(=O)c1c(C)cccc1-2` [Example 28, ethyl 5,6-dihydro-5,7-dimethyl-6-oxo-4H-imidazo[1,5-a][1,4]benzodiazepine-3-carboxylate], the IC50 in series [1] (setting [5]) was found to be 5 µM. The same compound yielded an ED50 in series [2] of 7.1 mg/kg.

`CCOC(=O)c1ncn2c1[C@@H]1CCCN1C(=O)c1c(C)cccc1-2` [Example 29, ethyl (S)-11,12,13,13a-tetrahydro-8-methyl-9-oxo-9H-imidazo[1,5-a]pyrrolo[2,1-c]benzodiazepine-1-carboxylate] showed an IC50 in series [1] (setting [5]) of 5 µM. This compound showed an ED50 in series [2] of 6.5 mg/kg.

`COC(=O)c1ncn2c1[C@@H]1CCCN1C(=O)c1ccccc1-2` [Example 31, methyl (S)-11,12,13,13a-tetrahydro-9-oxo-9H-imidazo[1,5-a]pyrrolo[2,1-c][1,4]benzodiazepine-1-carboxylate] returned an IC50 in series [1] (setting [5]) of 32 µM. The compound also returned an ED50 in series [2] of 3.5 mg/kg. The LD50 in series [3] was 2000 to 4000 mg/kg.

In the case of `CC(C)OC(=O)c1ncn2c1[C@@H]1CCCN1C(=O)c1ccccc1-2` [Example 33, isopropyl (S)-11,12,13,13a-tetrahydro-9-oxo-9H-imidazo[1,5-a]pyrrolo[2,1-c][1,4]benzodiazepine-1-carboxylate], the IC50 in series [1] (setting [5]) is 3 µM. This compound registered an ED50 in series [2] of 18.6 mg/kg.

`CCOC(=O)c1ncn2c1[C@@H]1CCCN1C(=O)c1sccc1-2` [Example 34, ethyl (S)-10,11,12,12a-tetrahydro-8-oxo-8H-imidazo[5,1-c]pyrrolo[1,2-a]thieno[3,2-e][1,4]diazepine-1-carboxylate] registered an IC50 in series [1] (setting [7]) of 0.0009 µM. In addition, the ED50 in series [2] was determined as 1.3 mg/kg.

`COC(=O)c1ncn2c1[C@@H]1CCCN1C(=O)c1sccc1-2` [Example 35, methyl (S)-10,11,12,12a-tetrahydro-8-oxo-8H-imidazo[5,1-c]pyrrolo[1,2-a]thieno[3,2-e][1,4]diazepine-1-carboxylate] had an IC50 in series [1] (setting [7]) of 0.0021 µM. Moreover, in series [2], the ED50 worked out at 0.22 mg/kg.

Consider `CCOC(=O)c1ncn2c1CN(C)C(=O)c1sccc1-2` [Example 36, ethyl 5,6-dihydro-5-methyl-6-oxo-4H-imidazo[1,5-a]thieno[2,3-f][1,4]diazepine-3-carboxylate], for which the IC50 in series [1] (setting [7]) was 0.0011 µM. In series [2], this compound gave an ED50 of 12.6 mg/kg.

For `COC(=O)c1ncn2c1CN(C)C(=O)c1sccc1-2` [Example 37, methyl 5,6-dihydro-5-methyl-6-oxo-4H-imidazo[1,5-a]thieno[2,3-f][1,4]diazepine-3-carboxylate], in series [1] (setting [7]), the IC50 turned out to be 0.0012 µM. It took a dose of 0.83 mg/kg to reach the 50% effect level in series [2] (ED50).

Regarding `N#Cc1ncn2c1[C@@H]1CCCN1C(=O)c1ccccc1-2` [Example 42, (S)-11,12,13,13a-tetrahydro-9-oxo-9H-imidazo[1,5-a]pyrrolo[2,1-c][1,4]benzodiazepine-1-carbonitrile], in series [1] (setting [5]), the IC50 was determined as 31 µM. In series [2], this compound registered an ED50 of 12.1 mg/kg.

Consider `CN1C(=O)CN=C(c2ccccc2)c2cc(Cl)ccc21` [diazepam, reference compound], for which the “protection from spasmodic seizures in the pentetrazole test” value in series [2] (diazepam 5 mg/kg i.p., more than 900 mice) is recorded as “protected all experimental animals from spasmodic seizures”. Also, in series [4] (diazepam 5 mg/kg i.v.), the “falling asleep / rousing reflex” value was “fall asleep immediately, no longer show rousing reflex”; the “sleep in the lateral position, duration” value is “at least 60 minutes”; the “time to slowly wake up” value is listed as “about 1.5 hours”. In addition, in series [4] (diazepam 10 mg/kg i.p.), the falling asleep result is “fall asleep within a few minutes” and the sleep duration lay within 2 to 3 h.
